Source: patent US20090280549A1, “Method for Treating Body Fluid” (priority 2005, published 2009)

Columns and labels:
[1] = system: neutrophils; experiment: ATX-S10•Na(II) uptake into neutrophils; format: cell-based, human
Method: (§1) After labeling the compound represented by formula (II) above (hereinafter referred to as “ATX-S10•Na(II)”) with ^14C, the ATX-S10•Na(II) was dissolved in saline at a concentration of approximately 1×10^−3 mol/L, and the solution was filtered and sterilized with a 0.22 μm filter and then diluted with 1% FBS (fetal bovine serum)-containing RPMI1640 medium to prepare a 5×10^−5 mol/L ATX-S10•Na(II)-added solution.
(§2) Erythrocytes, platelets, neutrophils and lymphocytes were prepared from blood sampled from three healthy persons (designated as A, B and C).
The erythrocytes, neutrophils and lymphocytes were prepared from heparinized blood. The heparinized blood and 6% dextran-added saline were mixed in a proportion of 3:1 (v:v), and the mixture was allowed to stand at room temperature for 30 minutes. The upper layer leukocyte fraction was centrifuged with a centrifuge tube (900 rpm, 10 minutes, 4° C.), and the precipitate was suspended in saline, superposed onto Ficoll-Hypaque® solution and centrifuged (1600 rpm, 30 minutes, room temperature). The intermediate layer was used as the lymphocyte fraction (containing monocytes) and the precipitate was used as the neutrophil fraction. The neutrophil fraction was suspended in ice-cold 0.2% NaCl solution for hemolysis, and then an equivalent amount of ice-cold 1.6% NaCl solution was immediately added to restore isotonicity. The crude erythrocyte fraction was diluted with KRP (Krebs-Ringer phosphate buffer) and centrifuged (2000 rpm, 5 minutes, 4° C.), and the buffy coat (leukocyte layer) was removed. This procedure was further repeated 4 times to yield the erythrocyte fraction.
(§3) After adding 400 μL of the cell suspension and 100 μL of the ATX-S10•Na(II)-added solution to each well of a 48-well microplate and mixing, the mixtures were incubated with a CO2 incubator (37° C., 5% CO2) or allowed to stand in a refrigerating chamber (approximately 4° C.). The cells were separated immediately after addition (0 hours after addition) and 1 hour, 3 hours, 20 hours and 44 hours after addition, and ATX-S10•Na(II) uptake into the cells (including cell surface binding) was measured. The uptake with standing at 4° C. corresponds to cell surface binding, and the value of the uptake with incubation at 37° C. minus the uptake with standing at 4° C. is presumed to correspond to the substantial ATX-S 10 Na(II) uptake for each type of cell.
(§4) The cell separation and uptake measurement were performed in the following manner. Specifically, 1 mL of 1.5% BSA (bovine serum albumin)-containing PBS solution (ice-cold) was placed in a 1.5 mL tube. The suspension of cells to be separated was gently pipetted and mixed, and a 100 μL portion was taken and superposed onto the 1.5% BSA-containing PBS solution. For each well, the cell suspension (300 μL) was dispensed into three tubes (n=3). After centrifugation (3200 rpm, 10 minutes, 4° C.), the medium and 1.5% BSA-containing PBS solution were removed by suction, and then the precipitate was suspended in 100 μL of PBS(−), and 1 mL of PBS(−) was further added and mixed therewith. After additional centrifugation (3000 rpm, 10 minutes, 4° C.), the supernatant was removed by suction, and the bottom of the tube, where the precipitate is present, was cut out and transferred to a counting vial. Then 4.5 mL of liquid scintillator was added and mixed therewith, and the radioactivity was measured for 5 minutes using a liquid scintillation counter. The measured radioactivity was used to calculate the ATX-S10•Na(II) uptake (pmol/10^5 cells) into the cells.
Uptake into neutrophils was measured also with addition of N-formyl-L-methionyl-L-leucyl-L-phenylalanine (hereinafter referred to as “fMLP”) (final concentration: 1×10^−7 mol/L or 1×10^−6 mol/L) or phorbol 12-myristate 13-acetate (hereinafter referred to as “PMA”) (final concentration: 1×10^−7 mol/L) to the cell suspension together with ATX-S10•Na(II).

[2] = system: erythrocytes; experiment: ATX-S10•Na(II) uptake into erythrocytes; format: cell-based, human
Method: as §1, §2
The erythrocytes, neutrophils and lymphocytes were prepared from heparinized blood. […]
as §3, with “The uptake with standing at 4° C. corresponds to cell surface binding, and the value of the uptake with incubation at 37° C. minus the uptake with standing at 4° C. is presumed to correspond to the substantial ATX-S 10 Na(II) uptake for each type of cell.” left out
The cell separation and uptake measurement were performed in the following manner. […] Then 4.5 mL of liquid scintillator was added and mixed therewith, and the radioactivity was measured for 5 minutes using a liquid scintillation counter. […]

[3] = system: THP-1 cells (activated macrophages) stimulated with PMA; experiment: ATX-S10•Na(II) uptake into THP-1 cells stimulated with PMA; format: cell-based, human
Method: as §1
(§5) As malignant lymphoma cells and leukemia cells, there were used THP-1 cells (human monocytic leukemia cells), EoL-1 cells (human eosinophilic leukemia cells), A3/KAW cells (human malignant lymphoma cells) and KG-1 cells (human acute myeloid leukemia cells). All of the cells were cultured using 10% FBS-containing RPMI1640 medium, with subculturing 1 to 2 times per week during the culturing. The THP-1 cells and EoL-1 cells were obtained from RIKEN BioResource Center, and the A3/KAW cells and KG-1 cells were obtained from Japan Health Sciences Foundation.
as §3, §4
Uptake into THP-1 cells was measured also with stimulation of the cells for approximately 24 hours with PMA (2 nmol/L, 5 nmol/L or 15 nmol/L) and addition of ATX-S10•Na(II) to the cell suspension immediately after removal of the PMA. THP-1 cells differentiate into macrophages upon stimulation with PMA.

[4] = system: KG-1 cells (human acute myeloid leukemia cells); experiment: ATX-S10•Na(II) uptake into KG-1 cells; format: cell-based; settings: for ATX-S10•Na(II) uptake: KG-1
Method: as §1, §5, §3, §4

## C=Cc1c(C)c2cc3nc(cc4[nH]c(cc5nc(cc1[nH]2)C(C)=C5CCC(=O)NC(CC(=O)[O-])C(=O)[O-])c(CCC(=O)NC(CC(=O)[O-])C(=O)[O-])c4C)C(C)(O)/C3=C\C=NO.[Na+].[Na+].[Na+].[Na+] (centres unmarked) [ATX-S10•Na(II)]
[1]; Neutrophil (A), donor A, 0 hr, immediately after addition
  ATX-S10•Na(II) uptake: 0.21 pmol/10^5 cells
[1]; Neutrophil (A), 3 hr, incubation at 37° C.
  ATX-S10•Na(II) uptake: 0.38 pmol/10^5 cells
[1]; Neutrophil (A), 3 hr, standing at 4° C.
  ATX-S10•Na(II) uptake: 0.46 pmol/10^5 cells
[1]; Neutrophil (A), 20 hr, incubation at 37° C.
  ATX-S10•Na(II) uptake: 4.93 pmol/10^5 cells
[1]; Neutrophil (A), 20 hr, standing at 4° C.
  ATX-S10•Na(II) uptake: 0.57 pmol/10^5 cells
[1]; Neutrophil (B), 3 hr, incubation at 37° C.
  ATX-S10•Na(II) uptake: 0.40 pmol/10^5 cells
[1]; Neutrophil (B), 3 hr, standing at 4° C.
  ATX-S10•Na(II) uptake: 1.27 pmol/10^5 cells
[1]; Neutrophil (B), 20 hr, incubation at 37° C.
  ATX-S10•Na(II) uptake: 4.04 pmol/10^5 cells
[1]; Neutrophil (B), 20 hr, standing at 4° C.
  ATX-S10•Na(II) uptake: 0.47 pmol/10^5 cells
[1]; Neutrophil (B), 44 hr, incubation at 37° C.
  ATX-S10•Na(II) uptake: 16.32 pmol/10^5 cells
[1]; Neutrophil (B), 44 hr, standing at 4° C.
  ATX-S10•Na(II) uptake: 0.68 pmol/10^5 cells
[1]; Neutrophil (C), 3 hr, incubation at 37° C.
  ATX-S10•Na(II) uptake: 0.72 pmol/10^5 cells
[1]; Neutrophil (C), 3 hr, standing at 4° C.
  ATX-S10•Na(II) uptake: 0.36 pmol/10^5 cells
[1]; Neutrophil (C), 20 hr, incubation at 37° C.
  ATX-S10•Na(II) uptake: 10.13 pmol/10^5 cells
[1]; Neutrophil (C), 20 hr, standing at 4° C.
  ATX-S10•Na(II) uptake: 0.95 pmol/10^5 cells
[1]; Neutrophil stimulated with 1×10^−6 mol/L fMLP, 3 hr, incubation at 37° C.
  ATX-S10•Na(II) uptake: 0.75 pmol/10^5 cells
[1]; Neutrophil stimulated with 1×10^−6 mol/L fMLP, 3 hr, standing at 4° C.
  ATX-S10•Na(II) uptake: 2.02 pmol/10^5 cells
[1]; Neutrophil stimulated with 1×10^−6 mol/L fMLP, 20 hr, incubation at 37° C.
  ATX-S10•Na(II) uptake: 3.57 pmol/10^5 cells
[1]; Neutrophil stimulated with 1×10^−6 mol/L fMLP, 20 hr, standing at 4° C.
  ATX-S10•Na(II) uptake: 0.57 pmol/10^5 cells
[1]; Neutrophil stimulated with 1×10^−6 mol/L fMLP, 44 hr, incubation at 37° C.
  ATX-S10•Na(II) uptake: 14.14 pmol/10^5 cells
[1]; Neutrophil stimulated with 1×10^−6 mol/L fMLP, 44 hr, standing at 4° C.
  ATX-S10•Na(II) uptake: 3.28 pmol/10^5 cells
[1]; Neutrophil stimulated with 1×10^−7 mol/L PMA, 3 hr, incubation at 37° C.
  ATX-S10•Na(II) uptake: 4.45 pmol/10^5 cells
[1]; Neutrophil stimulated with 1×10^−7 mol/L PMA, 3 hr, standing at 4° C.
  ATX-S10•Na(II) uptake: 2.76 pmol/10^5 cells
[1]; Neutrophil stimulated with 1×10^−7 mol/L PMA, 20 hr, incubation at 37° C.
  ATX-S10•Na(II) uptake: 7.33 pmol/10^5 cells
[1]; Neutrophil stimulated with 1×10^−7 mol/L PMA, 20 hr, standing at 4° C.
  ATX-S10•Na(II) uptake: 1.09 pmol/10^5 cells
[1]; Neutrophil stimulated with 1×10^−7 mol/L fMLP, 3 hr, incubation at 37° C.
  ATX-S10•Na(II) uptake: 0.79 pmol/10^5 cells
[1]; Neutrophil stimulated with 1×10^−7 mol/L fMLP, 3 hr, standing at 4° C.
  ATX-S10•Na(II) uptake: 0.97 pmol/10^5 cells
[1]; Neutrophil stimulated with 1×10^−7 mol/L fMLP, 20 hr, incubation at 37° C.
  ATX-S10•Na(II) uptake: 2.67 pmol/10^5 cells
[1]; Neutrophil stimulated with 1×10^−7 mol/L fMLP, 20 hr, standing at 4° C.
  ATX-S10•Na(II) uptake: 0.50 pmol/10^5 cells
[1]; neutrophils after stimulation with WILP or PMA
  uptake after stimulation compared with unstimulated cells: no increase in uptake
[1]; neutrophils versus EoL-1, THP-1 and A3/KAW cells
  uptake compared between cell types: higher than EoL-1 cells, although not as high as THP-1 cells or A3/KAW cells
[1]; neutrophils, course over incubation time
  substantial uptake of ATX-S10•Na(II) (uptake at 37° C. minus uptake at 4° C.): increased with incubation time
[2]
  ATX-S10•Na(II) uptake: Almost no ATX-S10•Na(II) was taken up
[3]; THP-1 cells (activated macrophages) stimulated with PMA for 24 hours
  uptake compared with unstimulated cells: higher than without stimulation with PMA
[3]; THP-1 stimulated with 2 nmol/L PMA, 0 hr, immediately after addition
  ATX-S10•Na(II) uptake: 1.66 pmol/10^5 cells
[3]; THP-1 stimulated with 2 nmol/L PMA, 3 hr, incubation at 37° C.
  ATX-S10•Na(II) uptake: 6.66 pmol/10^5 cells
[3]; THP-1 stimulated with 2 nmol/L PMA, 3 hr, standing at 4° C.
  ATX-S10•Na(II) uptake: 7.05 pmol/10^5 cells
[3]; THP-1 stimulated with 2 nmol/L PMA, 20 hr, incubation at 37° C.
  ATX-S10•Na(II) uptake: 11.75 pmol/10^5 cells
[3]; THP-1 stimulated with 2 nmol/L PMA, 20 hr, standing at 4° C.
  ATX-S10•Na(II) uptake: 5.32 pmol/10^5 cells
[3]; THP-1 stimulated with 5 nmol/L PMA, 0 hr, immediately after addition
  ATX-S10•Na(II) uptake: 2.07 pmol/10^5 cells
[3]; THP-1 stimulated with 5 nmol/L PMA, 3 hr, incubation at 37° C.
  ATX-S10•Na(II) uptake: 11.37 pmol/10^5 cells
[3]; THP-1 stimulated with 5 nmol/L PMA, 3 hr, standing at 4° C.
  ATX-S10•Na(II) uptake: 8.48 pmol/10^5 cells
[3]; THP-1 stimulated with 5 nmol/L PMA, 20 hr, incubation at 37° C.
  ATX-S10•Na(II) uptake: 16.06 pmol/10^5 cells
[3]; THP-1 stimulated with 5 nmol/L PMA, 20 hr, standing at 4° C.
  ATX-S10•Na(II) uptake: 7.53 pmol/10^5 cells
[3]; THP-1 stimulated with 15 nmol/L PMA, 0 hr, immediately after addition
  ATX-S10•Na(II) uptake: 2.93 pmol/10^5 cells
[3]; THP-1 stimulated with 15 nmol/L PMA, 3 hr, incubation at 37° C.
  ATX-S10•Na(II) uptake: 18.31 pmol/10^5 cells
[3]; THP-1 stimulated with 15 nmol/L PMA, 3 hr, standing at 4° C.
  ATX-S10•Na(II) uptake: 12.74 pmol/10^5 cells
[3]; THP-1 stimulated with 15 nmol/L PMA, 20 hr, incubation at 37° C.
  ATX-S10•Na(II) uptake: 19.95 pmol/10^5 cells
[3]; THP-1 stimulated with 15 nmol/L PMA, 20 hr, standing at 4° C.
  ATX-S10•Na(II) uptake: 9.13 pmol/10^5 cells
[4]; 0 hr, immediately after addition
  ATX-S10•Na(II) uptake: 0.40 pmol/10^5 cells
[4]; 1 hr, incubation at 37° C.
  ATX-S10•Na(II) uptake: 2.34 pmol/10^5 cells
[4]; 1 hr, standing at 4° C.
  ATX-S10•Na(II) uptake: 1.36 pmol/10^5 cells
[4]; 3 hr, incubation at 37° C.
  ATX-S10•Na(II) uptake: 2.59 pmol/10^5 cells
[4]; 3 hr, standing at 4° C.
  ATX-S10•Na(II) uptake: 1.50 pmol/10^5 cells
[4]; 20 hr, incubation at 37° C.
  ATX-S10•Na(II) uptake: 6.85 pmol/10^5 cells
[4]; 20 hr, standing at 4° C.
  ATX-S10•Na(II) uptake: 2.87 pmol/10^5 cells
[4]; 44 hr, incubation at 37° C.
  ATX-S10•Na(II) uptake: 10.97 pmol/10^5 cells
[4]; 44 hr, standing at 4° C.
  ATX-S10•Na(II) uptake: 0.96 pmol/10^5 cells
[4]; KG-1 cells, course over incubation time
  substantial uptake of ATX-S10•Na(II) (uptake at 37° C. minus uptake at 4° C.): increased with incubation time
